Assay results reported in ChEMBL document CHEMBL1132461 (J Med Chem, 1999).
Numbered stars: 1 amine (or outer) side, 2 acyl side, 3 side chain; on linkers, the order of the positions; unused ones are H or OH. Bridge positions count the residues as written; N and C are the ends. Square brackets hold non-standard residues; d marks the D form. Peptide text beside a SMILES is read from it. X2 = O=C([C@@H]1CC[C@@H]([*:3])N1[*:1])[*:2]; X1 = O=C([C@@H]1CC[C@H]([*:3])N1[*:1])[*:2]; hCys = N[C@@H](CCS)C(=O)O

Experiments:
[1] = target: T1, Angiotensin II receptor (AT-1) type-1 (Rattus norvegicus, UniProt P29089+P25095); experiment: In vitro inhibitory activity against rat Angiotensin II receptor, type 1 expressed in CHO cells; type: cell-based
T1 sequence (P29089 whole entry): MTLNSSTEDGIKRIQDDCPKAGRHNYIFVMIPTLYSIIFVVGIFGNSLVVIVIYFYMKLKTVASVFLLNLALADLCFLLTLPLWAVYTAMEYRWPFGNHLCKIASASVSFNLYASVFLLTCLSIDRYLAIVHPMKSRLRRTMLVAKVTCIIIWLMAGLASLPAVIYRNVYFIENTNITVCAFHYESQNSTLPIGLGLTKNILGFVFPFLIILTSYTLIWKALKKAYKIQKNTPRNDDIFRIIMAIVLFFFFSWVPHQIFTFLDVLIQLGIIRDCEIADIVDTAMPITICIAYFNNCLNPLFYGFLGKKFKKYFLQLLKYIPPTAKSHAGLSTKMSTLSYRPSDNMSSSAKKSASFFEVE
T1 sequence (P25095 whole entry): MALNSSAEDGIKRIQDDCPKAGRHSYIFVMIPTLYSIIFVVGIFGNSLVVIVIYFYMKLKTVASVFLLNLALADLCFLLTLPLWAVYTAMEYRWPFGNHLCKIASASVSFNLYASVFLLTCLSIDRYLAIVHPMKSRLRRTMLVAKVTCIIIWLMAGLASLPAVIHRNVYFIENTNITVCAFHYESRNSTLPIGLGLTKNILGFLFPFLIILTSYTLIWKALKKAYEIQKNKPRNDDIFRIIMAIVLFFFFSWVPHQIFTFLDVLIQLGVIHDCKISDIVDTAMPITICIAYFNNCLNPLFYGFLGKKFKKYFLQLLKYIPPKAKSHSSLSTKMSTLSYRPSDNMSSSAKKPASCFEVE

[2] = target: T1, Angiotensin II receptor (AT-1) type-1; experiment: In vitro binding affinity against Angiotensin II receptor, type 1 from rat liver membranes

For NC(N)=NCCC[C@H](NC(=O)[C@@H](N)CC(=O)O)C(=O)N[C@H]1CS[C@H]2CC[C@@H](C(=O)N[C@@H](Cc3c[nH]cn3)C(=O)N3CCC[C@H]3C(=O)N[C@@H](Cc3ccccc3)C(=O)O)N2C(=O)[C@H](Cc2ccc(O)cc2)NC1=O (H-DRCY[X1]HPF-OH; thioether 3-5), the IC50 [1] was > 10000 nM.
In the case of NC(N)=NCCC[C@H](NC(=O)[C@@H](N)CC(=O)O)C(=O)N[C@H]1CS[C@@H]2CC[C@@H](C(=O)N[C@@H](Cc3c[nH]cn3)C(=O)N3CCC[C@H]3C(=O)N[C@@H](Cc3ccccc3)C(=O)O)N2C(=O)[C@H](Cc2ccc(O)cc2)NC1=O (H-DRCY[X2]HPF-OH; thioether 3-5), the IC50 [1] is reported as > 10000 nM.
CC(C)[C@H](NC(=O)[C@H](CCCN=C(N)N)NC(=O)[C@@H](N)CC(=O)O)C(=O)N[C@@H](Cc1ccc(O)cc1)C(=O)N[C@H]1CS[C@@H]2CC[C@@H](C(=O)N[C@@H](Cc3ccccc3)C(=O)O)N2C(=O)[C@H](Cc2c[nH]cn2)NC1=O (H-DRVYCH[X2]F-OH; thioether 5-7) was tested, and the IC50 [1] was > 10000 nM.
With NC(N)=NCCC[C@H](NC(=O)[C@@H](N)CC(=O)O)C(=O)N[C@H]1CCS[C@H]2CC[C@@H](C(=O)N[C@@H](Cc3c[nH]cn3)C(=O)N3CCC[C@H]3C(=O)N[C@@H](Cc3ccccc3)C(=O)O)N2C(=O)[C@H](Cc2ccc(O)cc2)NC1=O (H-DR[hCys]Y[X1]HPF-OH; thioether 3-5) the IC50 [1] was 800 nM and the Ki [2] was 750 nM.
Compound NC(N)=NCCC[C@H](NC(=O)[C@@H](N)CC(=O)O)C(=O)N[C@H]1CCSSCC[C@@H](C(=O)N[C@@H](Cc2c[nH]cn2)C(=O)N2CCC[C@H]2C(=O)N[C@@H](Cc2ccccc2)C(=O)O)NC(=O)[C@H](Cc2ccc(O)cc2)NC1=O (H-DR[hCys]Y[hCys]HPF-OH; disulfide 3-5) has an IC50 [1] of 0.2 nM and a Ki [2] of 0.19 nM.
